Reference: patent US9066880B2, “Use of dihydrodehydrodiisoeugenol and preparations comprising dihydrodehydrodiisoeugenol” (SYMRISE AG, priority 2010, dated 2015)

What was measured:
[1] = test system: 3T3-L1-cells (mouse embryonic fibroblast-like preadipocytes cell line); test: Lipolysis assay (in vitro), free glycerol in supernatant; type: cell-based; conditions: for Relative lipolysis compared to basal lipolysis: added at day 10 for 20 hours, basal lipolysis = 100%
Description: 3T3-L1-cells (mouse embryonic fibroblast-like preadipocytes cell line) were propagated in Dulbecco's Modified Eagle Medium (DMEM), enriched with 10% newborn calf serum (CS) at 37° C. and 5% CO2 and seeded in 48-well plates for lipolysis. After reaching confluence at day −2 the differentiation was induced by changing medium at day 0 to DMEM with 10% fetal calf serum (FCS) containing a hormone mix (HM) of 1 μg/ml insulin, 0.25 μM dexamethasone (Dex) and 0.5 mM 3-isobutyl-1-methylxanthine (IBMX). Medium is renewed every other day. At day 2, medium consisting of DMEM, 10% FCS and 1 μg/ml insulin is added. From day 4 on, only DMEM containing 10% FCS is used for further cultivation of cells. For determination of lipolysis, compounds of interest are added at day 10 for 20 hours mixed with bovine serum albumin (BSA). If lipolysis occurs, cells secrete glycerol into the supernatant. Therefore, supernatants are harvested and determination of lipolysis is performed by using a free glycerol reagent. The quantification of the free glycerol is carried out on the basis of an enzymatic method with a free glycerol reagent.
The lipolysis in the presence of the test substances is calculated according to the following equation:
[formula] wherein • A test substance=absorption of the wells with test substance and with cells • A control=absorption of the wells without test substance, but with cells • A control without cells=absorption of the wells without test substance and without cells

adiponectin = test: Real Time-PCR, expression of differentiation marker adiponectin in 3T3-L1-cells; type: cell-based, mouse; conditions: fold induction compared to hormone mix stimulation (set equal to one)
Description: (§1) 3T3-L1-cells (mouse embryonic fibroblast-like preadipocytes cell line) were propagated in Dulbecco's Modified Eagle Medium (DMEM), enriched with 10% newborn calf serum (CS) at 37° C. and 5% CO2 and seeded in 12-well plates for gene expression analysis. After reaching confluence at day −2, the differentiation was induced by changing medium at day 0 to DMEM with 10% fetal calf serum (FCS) containing a hormone mix (HM) of 1 μg/ml insulin, 0.25 μM dexamethasone (Dex) and 0.5 mM 3-isobutyl-1-methylxanthine (IBMX). Compounds of interest such as compound of formula (I) are applied from day −2 (confluence of the cells) until day 2 using various concentrations. Medium is renewed every other day. At day 2, medium consisting of DMEM, 10% FCS and 1 μg/ml insulin is added. From day 4 on, only DMEM containing 10% FCS is used for further cultivation of cells. […]
(§2) Total RNA from cell culture samples was isolated using RNeasy Total RNA Kits (Qiagen, Hilden; Germany). The RNA concentration and purity was determined photometrically using 260/280 ratios (Biophotometer, Eppendorf, Hamburg, Germany). […] At least three independent experiments were performed with 2 determinations each and the mean value of these was calculated. […] Each sample was analyzed in duplicate employing the universal protocol over 46 cycles. […]

Cyclooxygenase-2 (COX-2) = target: T1, Cyclooxygenase-2 (COX-2) (Homo sapiens, UniProt P35354); test: COX-2-Assay (in vitro), fluorometric ADHP/resorufin; type: biochemical; conditions: average of at least 2 independent experiments
T1 sequence (P35354 18-604): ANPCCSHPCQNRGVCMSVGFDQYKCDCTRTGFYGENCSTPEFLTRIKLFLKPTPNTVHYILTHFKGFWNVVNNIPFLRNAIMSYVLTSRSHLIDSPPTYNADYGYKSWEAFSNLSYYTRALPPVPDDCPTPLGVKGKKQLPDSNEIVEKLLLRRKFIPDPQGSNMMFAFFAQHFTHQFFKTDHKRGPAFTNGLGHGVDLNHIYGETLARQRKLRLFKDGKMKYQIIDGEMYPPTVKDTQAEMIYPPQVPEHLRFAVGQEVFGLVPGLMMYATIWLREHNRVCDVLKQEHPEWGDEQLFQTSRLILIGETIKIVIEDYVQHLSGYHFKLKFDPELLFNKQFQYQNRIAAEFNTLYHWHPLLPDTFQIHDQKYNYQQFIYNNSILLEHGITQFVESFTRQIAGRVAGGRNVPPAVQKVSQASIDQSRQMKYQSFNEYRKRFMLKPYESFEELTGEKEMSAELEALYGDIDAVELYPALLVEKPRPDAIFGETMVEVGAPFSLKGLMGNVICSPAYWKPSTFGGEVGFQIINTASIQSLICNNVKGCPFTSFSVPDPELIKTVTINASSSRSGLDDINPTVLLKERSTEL
From the text: Cyclooxygenase-2 (COX-2) in the presence of test substance is mixed with the fluorometric substrate 10-acetyl-3,7-dihydroxyphenoxanin (ADHP) and Heme. The reaction is started by addition of the substrate arachidonic acid.
COX-2 converts the arachidonic acid into the prostaglandin endoperoxide G2 (PGG2). PGG2 is reduced to the corresponding alcohol PGH2. During this reaction ADHP results in fluorescent resorufin. Resorufin is quantified at an extinction wavelength of 535 nm and an emission wavelength of 590 nm.
[formula] where • Resorufin test substance=Resorufin concentration of the wells with test substance and with COX-2 • Resorufin control=Resorufin concentration of the wells without test substance, but with COX-2 • Resorufin control without COX-2=Resoruf in concentration of the wells without test substance and without COX-2
From the inhibition of the COX-2[%] in a series of dilutions of tested samples the IC50 is calculated. This is the concentration at which the activity of the COX-2 is inhibited by 50%.

[2] = test system: fatty acid binding protein 4 (FABP4); test: Real Time-PCR, expression of differentiation marker FABP4 in 3T3-L1-cells; type: cell-based, mouse; conditions: fold induction compared to hormone mix stimulation (set equal to one)
Description: as §1, §2

[3] = ABTS-Assay (in vitro), anti-oxidative capacity; conditions: photometric at 734 nm, average of at least 2 independent experiments
Description: With the help of the ABTS-assay the anti-oxidative capacity of test substances is measured. 2,2′-azino bis-(3-ethylbenzothiazoline 6-sulfonic acid) (ABTS) is transformed by potassium persulfate into the blue-green radical cation ABTS•+. Through the addition of antioxidants (test substance) the radical cations are reduced and discoloration takes place, which is determined photometrically at 734 nm.
[formula] A test substance=absorption of the wells with test substance • A control=absorption of the wells without test substance
From the inhibition of the radical formation [%] in a series of dilutions of tested samples the IC50 is calculated. This is the concentration at which the radical formation is inhibited by 50%.

[4] = test system: Preadipocyte factor 1 (Pref1); test: Real Time-PCR, expression of preadipocytes marker Pref-1 in 3T3-L1-cells; type: cell-based, mouse; conditions: relative to hormone mix stimulation (set equal to one)
Description: as §1, §2

[5] = test system: 3T3-L1-cells (mouse embryonic fibroblast-like preadipocytes cell line); test: Quantification of intracellular lipids (stimulation of adipogenesis), Nile Red; type: cell-based; set-up: Stimulation of adipogenesis: unit not given here; conditions: for Stimulation of adipogenesis: applied day −2 to day 2, Nile Red at day 10, vs hormone mix only
Description: 3T3-L1-cells (mouse embryonic fibroblast-like preadipocytes cell line) were propagated in Dulbecco's Modified Eagle Medium (DMEM), enriched with 10% newborn calf serum (CS) at 37° C. and 5% CO2 and seeded in 48-well plates for lipid quantification. After reaching confluence at day −2 the differentiation was induced by changing medium at day 0 to DMEM with 10% fetal calf serum (FCS) containing a hormone mix (HM) of 1 μg/ml insulin, 0.25 μM dexamethasone (Dex) and 0.5 mM 3-isobutyl-1-methylxanthine (IBMX).
Compounds of interest such as compound of formula (I) are applied from day −2 (confluence of the cells) until day 2 using various concentrations. Medium is renewed every other day. At day 2, medium consisting of DMEM, 10% FCS and 1 μg/ml insulin is added. From day 4 on, only DMEM containing 10% FCS is used for further cultivation of cells. At day 10, quantification of the intracellular lipid droplets is performed by addition of the fluorescent dye Nile Red (9-diethylamino-5H-benzo[alpha]phenoxazine-5-one) for 20 minutes at 37° C. and 5% CO2. Fluorescence (RFU) is detected with excitation at 485 nm and emission at 535 nm.
Stimulation of the adipogenesis in the presence of the compounds of interest is calculated according to the following equation:
[formula] wherein • RFU test substance=Relative Fluorescence Units of the wells with test substance and with cells • RFU control=Relative Fluorescence Units of the wells stimulated with hormone mix only. • RFU without cells=Relative Fluorescence Units of the wells containing Nile Red only, without cells.

[6] = test system: peroxisome proliferator-activated receptor γ2 (PPARγ2); test: Real Time-PCR, expression of differentiation marker PPARγ2 in 3T3-L1-cells; type: cell-based, mouse; conditions: fold induction compared to hormone mix stimulation (set equal to one)
Description: as §1, §2

[7] = test system: CCAAT enhancer binding protein α (C/EBPα); test: Real Time-PCR, expression of differentiation marker C/EBPα in 3T3-L1-cells; type: cell-based, mouse; conditions: fold induction compared to hormone mix stimulation (set equal to one)
Description: as §1, §2

## CCCc1cc(OC)c2c(c1)C(C)C(c1ccc(O)c(OC)c1)O2 (centres unmarked) [compound of formula (I), 2-Methoxy-4-(7-methoxy-3-methyl-5-propyl-2,3-dihydro-benzofuran-2-yl)-phenol]
[1]; 1 μM
  Relative lipolysis compared to basal lipolysis: 85% ± 1.6
[1]; 10 μM
  Relative lipolysis compared to basal lipolysis: 85% ± 1.5
adiponectin; 1 μM
  Stimulation of expression at day 2, Adiponectin: 1.4
adiponectin; 10 μM
  Stimulation of expression at day 2, Adiponectin: 2.2
Cyclooxygenase-2 (COX-2)
  IC50 calculated from the inhibition of COX-2: 12.3 ppm
[2]; 1 μM
  Stimulation of expression at day 2, FABP4: 2.1
[2]; 10 μM
  Stimulation of expression at day 2, FABP4: 3.3
[3]
  IC50 calculated from the inhibition of radical formation: 11.0 ppm
[4]; 1 μM
  Relative expression at day 2, Pref-1: 0.3
[4]; 10 μM
  Relative expression at day 2, Pref-1: 0.7
[5]; 0.01 μM
  Stimulation of adipogenesis: 18
[5]; 0.1 μM
  Stimulation of adipogenesis: 30
[5]; 0.25 μM
  Stimulation of adipogenesis: 35
[5]; 0.5 μM
  Stimulation of adipogenesis: 38
[5]; 0.75 μM
  Stimulation of adipogenesis: 48
[5]; 1 μM
  Stimulation of adipogenesis: 49
[5]; 2.5 μM
  Stimulation of adipogenesis: 48
[5]; 5 μM
  Stimulation of adipogenesis: 37
[5]; 10 μM
  Stimulation of adipogenesis: 22
[6]; 1 μM
  Stimulation of expression at day 2, PPARγ2: 1.0
[6]; 10 μM
  Stimulation of expression at day 2, PPARγ2: 1.5
[7]; 1 μM
  Stimulation of expression at day 2, C/EBPα: 1.1
[7]; 10 μM
  Stimulation of expression at day 2, C/EBPα: 2.2

## C[C@H]1CC[C@@]2(OC1)O[C@H]1C[C@H]3[C@@H]4CC[C@@H]5C[C@@H](O)CC[C@]5(C)[C@H]4CC[C@]3(C)[C@H]1[C@@H]2C [sarsasapogenin, reference compound]
[1]; 10 μM
  Relative lipolysis compared to basal lipolysis: 99% ± 3.3
[1]; 20 μM
  Relative lipolysis compared to basal lipolysis: 106% ± 3.5
[1]; experiments have shown
  Effect on lipolysis in differentiated adipocytes (in words): no effect on the lipolysis
[5]; 10 μM
  Stimulation of adipogenesis: 27
[5]; 20 μM
  Stimulation of adipogenesis: 17
[5]; experiments have shown
  Effect on adipogenesis (in words): stimulating the adipogenesis
